From ChEMBL document CHEMBL1156835, “Discovery of new SCH 39166 analogs as potent and selective dopamine D1 receptor antagonists” (Bioorg Med Chem Lett, 2010) come the findings set out here.

Some results are limits rather than exact numbers.

For one series, the target named is D(1A) dopamine receptor (Homo sapiens, UniProt P21728). The series can be described thus: Binding affinity to dopamine D1 receptor.
For a further series, the target named is D(2) dopamine receptor (Homo sapiens, UniProt P14416). The series can be described thus: Binding affinity to dopamine D2 receptor.
D(2) dopamine receptor, sequence (P14416 whole entry): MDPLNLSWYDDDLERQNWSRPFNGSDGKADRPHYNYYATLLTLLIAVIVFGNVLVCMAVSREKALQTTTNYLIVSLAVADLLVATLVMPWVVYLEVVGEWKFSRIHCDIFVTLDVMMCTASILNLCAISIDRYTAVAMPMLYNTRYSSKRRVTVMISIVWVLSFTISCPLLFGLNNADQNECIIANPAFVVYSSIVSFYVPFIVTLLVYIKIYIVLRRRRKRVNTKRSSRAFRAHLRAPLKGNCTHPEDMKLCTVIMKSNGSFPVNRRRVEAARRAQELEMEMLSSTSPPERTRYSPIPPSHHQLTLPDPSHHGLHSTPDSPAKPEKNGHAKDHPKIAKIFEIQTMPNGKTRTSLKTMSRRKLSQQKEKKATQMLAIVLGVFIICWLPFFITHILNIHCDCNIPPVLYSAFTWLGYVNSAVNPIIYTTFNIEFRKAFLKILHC
For a further series, the target named is D(1B) dopamine receptor (Homo sapiens, UniProt P21918). As to the kind of experiment: Binding affinity to dopamine D5 receptor.
D(1B) dopamine receptor, sequence (P21918 whole entry): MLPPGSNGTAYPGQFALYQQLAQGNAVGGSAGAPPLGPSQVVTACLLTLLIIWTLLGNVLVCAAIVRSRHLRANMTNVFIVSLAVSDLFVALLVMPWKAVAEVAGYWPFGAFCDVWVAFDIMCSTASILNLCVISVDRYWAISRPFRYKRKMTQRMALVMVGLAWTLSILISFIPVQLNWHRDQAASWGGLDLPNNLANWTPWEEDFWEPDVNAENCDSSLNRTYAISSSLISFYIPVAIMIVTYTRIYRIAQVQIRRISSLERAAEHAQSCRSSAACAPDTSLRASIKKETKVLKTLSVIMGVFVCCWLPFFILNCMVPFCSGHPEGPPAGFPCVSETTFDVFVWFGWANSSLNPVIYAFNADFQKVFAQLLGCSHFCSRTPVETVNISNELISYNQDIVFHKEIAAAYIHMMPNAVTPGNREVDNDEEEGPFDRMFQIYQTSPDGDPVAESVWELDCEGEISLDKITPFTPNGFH
The target in the next series is T1, D(4) dopamine receptor (Homo sapiens, UniProt P21917).
T1 sequence (P21917 whole entry): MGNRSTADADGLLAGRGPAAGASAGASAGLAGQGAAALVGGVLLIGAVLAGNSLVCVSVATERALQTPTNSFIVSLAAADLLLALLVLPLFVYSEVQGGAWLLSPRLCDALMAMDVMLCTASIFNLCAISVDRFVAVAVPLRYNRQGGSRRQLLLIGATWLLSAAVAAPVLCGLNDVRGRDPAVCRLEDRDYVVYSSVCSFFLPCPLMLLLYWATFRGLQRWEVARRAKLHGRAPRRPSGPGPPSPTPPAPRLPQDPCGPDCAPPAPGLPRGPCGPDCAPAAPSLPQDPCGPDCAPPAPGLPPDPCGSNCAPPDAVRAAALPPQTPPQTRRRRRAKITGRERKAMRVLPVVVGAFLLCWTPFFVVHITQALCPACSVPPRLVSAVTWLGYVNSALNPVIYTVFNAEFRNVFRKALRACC
As to the kind of experiment: Binding affinity to dopamine D4 receptor.

The nature of series [1]: AUC in rat. It counts as ADME, organism-based. As to conditions: plasma.
Series [2] in a line: Oral bioavailability in rat. It counts as ADME, organism-based. As to conditions: in vivo.
A short description of series [3]: Selectivity ratio, Ki for dopamine D1 receptor to Ki for dopamine D2 receptor.

The Ki is the dissociation constant of the complex between target and ligand, obtained from inhibition or displacement. Low readings indicate tighter binding, high ones weaker binding. As usually defined, the AUC is the area under the concentration-time curve, a measure of exposure. A low value points to less exposure. The bioavailability is the share of a dose that reaches the circulation, judged against a reference dose that is usually intravenous. High values mean much systemic uptake, low ones little systemic uptake.

D(1A) dopamine receptor, sequence (P21728 whole entry): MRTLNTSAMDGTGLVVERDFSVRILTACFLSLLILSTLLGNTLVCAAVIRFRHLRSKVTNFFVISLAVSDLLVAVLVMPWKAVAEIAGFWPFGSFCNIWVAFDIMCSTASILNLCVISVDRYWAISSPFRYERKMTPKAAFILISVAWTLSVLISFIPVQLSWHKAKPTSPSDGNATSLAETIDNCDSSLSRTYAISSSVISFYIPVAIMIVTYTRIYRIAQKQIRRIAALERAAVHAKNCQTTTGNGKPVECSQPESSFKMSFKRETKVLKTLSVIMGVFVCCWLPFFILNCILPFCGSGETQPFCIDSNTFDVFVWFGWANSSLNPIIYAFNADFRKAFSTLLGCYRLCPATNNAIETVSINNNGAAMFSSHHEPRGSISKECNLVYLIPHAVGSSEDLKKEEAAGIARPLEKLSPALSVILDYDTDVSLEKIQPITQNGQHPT

With `CN1CCc2cc(Cl)c(O)cc2[C@H]2c3cccc(NS(C)(=O)=O)c3CC[C@@H]21`, the Ki at D(1A) dopamine receptor was 0.0047 µM; at D(2) dopamine receptor, 1 µM.

With `CN1CCc2cc(Cl)c(O)cc2[C@@H](c2ccc(CNc3ccccc3)cc2)C1`, the Ki at D(1A) dopamine receptor was found to be 0.002 µM; on D(2) dopamine receptor, 2 µM.

Turning to `CN1CCc2cc(Cl)c(O)cc2[C@H]2c3ccc(NS(C)(=O)=O)cc3CC[C@@H]21`, the Ki was 0.0005 µM on D(1A) dopamine receptor, 0.0058 µM on D(1B) dopamine receptor, 3 µM at D(2) dopamine receptor and above 10 µM on D(4) dopamine receptor. Moreover, the AUC in series [1] worked out at 2490 ng·h/mL. Further, in series [2], the bioavailability was 29%.

Take `CCNC(=O)Nc1cccc2c1CC[C@H]1[C@H]2c2cc(O)c(Cl)cc2CCN1C`: the Ki on D(1A) dopamine receptor was found to be 0.0024 µM; on D(2) dopamine receptor, 0.9 µM.

`CCC(=O)Nc1cccc2c1CC[C@H]1[C@H]2c2cc(O)c(Cl)cc2CCN1C`: the Ki amounted to 0.0023 µM at D(1A) dopamine receptor and 0.5 µM at D(2) dopamine receptor.

As for `CN1CCc2cc(Cl)c(O)cc2[C@H]2c3cccc(NC(=O)Nc4c(Cl)cccc4Cl)c3CC[C@@H]21`, the Ki on D(1A) dopamine receptor came out at 0.0071 µM; at D(2) dopamine receptor, 0.566 µM.

Take `CN1CCc2cc(Cl)c(O)cc2[C@H]2c3ccc(N)cc3CC[C@@H]21`: the Ki on D(1A) dopamine receptor is 0.007 µM; at D(1B) dopamine receptor it was 0.0083 µM; at D(2) dopamine receptor it was 5.4 µM; at D(4) dopamine receptor, above 10 µM.

In the case of `CN1CCc2cc(Cl)c(O)cc2[C@@H](c2ccc(CN(C)S(C)(=O)=O)cc2)C1`, the inhibition constant (Ki) at D(1A) dopamine receptor came out at 0.0005 µM; at D(2) dopamine receptor it was 6 µM.

Turning to `CC(=O)N(Cc1ccc([C@H]2CN(C)CCc3cc(Cl)c(O)cc32)cc1)C1CCC1`, the Ki was 0.0002 µM on D(1A) dopamine receptor, 0.013 µM on D(1B) dopamine receptor, 0.159 µM at D(2) dopamine receptor and above 10 µM at D(4) dopamine receptor.

As for `CN1CCc2cc(Cl)c(O)cc2[C@H]2c3cc(CN4CCN(c5ccccn5)CC4)ccc3CC[C@@H]21`, the values for the Ki at D(1A) dopamine receptor and at D(2) dopamine receptor were 0.152 µM and 0.0013 µM, respectively. The Ratio Ki in series [3] turned out to be 117.

Turning to `CN1CCc2cc(Cl)c(O)cc2[C@@H](c2ccc(CN(Cc3ccccc3)c3ccc(F)cc3F)cc2)C1`, the inhibitory constant (Ki) on D(1A) dopamine receptor was determined as 0.0007 µM; at D(2) dopamine receptor, 0.552 µM.

Turning to `CN1CCc2cc(Cl)c(O)cc2[C@@H](c2ccc(CNC3CCC3)cc2)C1`, the inhibition constant Ki on D(1B) dopamine receptor is 0.0039 µM; on D(2) dopamine receptor it was 2 µM; at D(4) dopamine receptor, above 10 µM.

For the compound `CCOC(=O)Nc1ccc2c(c1)CC[C@H]1[C@H]2c2cc(O)c(Cl)cc2CCN1C`, the Ki is 0.0014 µM on D(1A) dopamine receptor, 0.0033 µM at D(1B) dopamine receptor, 3.9 µM on D(2) dopamine receptor and above 10 µM on D(4) dopamine receptor.

As to `CN1CCc2cc(Cl)c(O)cc2[C@H]2c3cccc(NC(=O)C4CC4)c3CC[C@@H]21`, the Ki at D(1A) dopamine receptor stood at 0.0057 µM; at D(2) dopamine receptor, 2.14 µM.

Consider `CCS(=O)(=O)Nc1cccc2c1CC[C@H]1[C@H]2c2cc(O)c(Cl)cc2CCN1C`, for which the results for the Ki at D(1A) dopamine receptor and at D(2) dopamine receptor were 0.0058 µM and 0.618 µM, respectively.

On to `CN1CCc2cc(Cl)c(O)cc2[C@@H](c2ccc(CN(C3CCC3)S(C)(=O)=O)cc2)C1`, for which the inhibitory constant (Ki) at D(1A) dopamine receptor was 0.0005 µM; at D(1B) dopamine receptor, 0.0059 µM; at D(2) dopamine receptor, 2 µM; on D(4) dopamine receptor, above 10 µM.

For the compound `CN1CCc2cc(Cl)c(O)cc2[C@@H](c2ccc(CN(C)S(=O)(=O)c3ccccc3)cc2)C1`, the Ki on D(1A) dopamine receptor came out at 0.0006 µM; on D(1B) dopamine receptor, 0.0012 µM; at D(2) dopamine receptor it was 0.331 µM; at D(4) dopamine receptor it was 4.33 µM.

Take `CCS(=O)(=O)Nc1ccc2c(c1)CC[C@H]1[C@H]2c2cc(O)c(Cl)cc2CCN1C`: the Ki is 0.0007 µM at D(1A) dopamine receptor, 0.0056 µM on D(1B) dopamine receptor, 3.3 µM at D(2) dopamine receptor and above 10 µM on D(4) dopamine receptor.

On to `CN1CCc2cc(Cl)c(O)cc2[C@H]2c3ccccc3CC[C@@H]21` [ECOPIPAM], for which the AUC in series [1] worked out at 156 ng·h/mL. For the same compound, in series [2], the bioavailability was determined as 0.6%.

Regarding `CCNC(=O)Nc1ccc2c(c1)CC[C@H]1[C@H]2c2cc(O)c(Cl)cc2CCN1C`, the Ki at D(1A) dopamine receptor was 0.0015 µM; at D(1B) dopamine receptor, 0.0071 µM; on D(2) dopamine receptor, 6 µM; at D(4) dopamine receptor, above 10 µM.

Regarding `CN1CCc2cc(Cl)c(O)cc2[C@H]2c3cc(CN4CCCCC4)ccc3CC[C@@H]21`, the results for the Ki on D(1A) dopamine receptor and at D(2) dopamine receptor were 0.225 µM and 0.026 µM, respectively. The Ratio Ki in series [3] was determined as 8.7.

On to `CN1CCc2cc(Cl)c(O)cc2[C@H]2c3ccc(NC(=O)Nc4c(Cl)cccc4Cl)cc3CC[C@@H]21`, for which the Ki at D(1A) dopamine receptor was 0.0007 µM; on D(2) dopamine receptor it was 1.09 µM.

For `CN1CCc2cc(Cl)c(O)cc2[C@H]2c3ccc(NC(=O)C4CC4)cc3CC[C@@H]21`, the Ki is 0.0023 µM at D(1A) dopamine receptor and above 10 µM on D(2) dopamine receptor.

Turning to `CN1CCc2cc(Cl)c(O)cc2[C@H]2c3cccc(N)c3CC[C@@H]21`, the Ki at D(1A) dopamine receptor was 0.0028 µM; at D(1B) dopamine receptor, 0.007 µM; on D(2) dopamine receptor it was 2.1 µM; at D(4) dopamine receptor, above 10 µM.
